Laboratory results reported in patent US20260250320A1, “LIPIDATED PEPTIDE INHIBITORS OF INTERLEUKIN-23 RECEPTOR” (Janssen Pharmaceutica NV, priority 2023, published 2026).
pIC50: −log10 of the molar value. *1 amine or outer side, *2 acyl side, *3 side chain or, on linkers, in order; H or OH if unused. Where a SMILES comes first, the peptide text is derived from it. Bridges are numbered along the chain shown (N, C = ends). Side-chain parts run from the residue outwards. [ ]: non-standard residue; d: D form. The star is where a group is joined. ξ: configuration not given here. X38 = O=C(O)CCCCCCCCCCCCCCCCC(=O)N[C@@H](CCC(=O)NCCOCCOCC(=O)NCCOCCCCC(=O)*)C(=O)O; X11 = CN(CC(N)=O)C(=O)[C@H](Cc1cccnc1)NC(O)[C@H](CC(N)=O)N*; Me3N+(CH2)2O(CH2)2O(CH2)2CO = C[N+](C)(C)CCOCCOCCC(=O)*; CH2CH2OCH2CH2OCH2CH2NMe3+ = C[N+](C)(C)CCOCCOCC*; Trp(7-Me) = Cc1cccc2c(C[C@H](N)C(=O)O)c[nH]c12; C20 diacid = O=C(O)CCCCCCCCCCCCCCCCCCC(=O)*; C18 diacid = O=C(O)CCCCCCCCCCCCCCCCC(=O)*; γGlu = O=C(O)[C@H](CCC(=O)[*:2])N[*:1]; 2Nal = N[C@@H](Cc1ccc2ccccc2c1)C(=O)O; AEF = NCCOc1ccc(C[C@H](N)C(=O)O)cc1; X2 = C[N+](C)(C)C[C@@H](CC(=O)O)N*; 3Pal = N[C@@H](Cc1cccnc1)C(=O)O; Lys(Me) = CNCCCC[C@H](N)C(=O)O; Pen = CC(C)(S)[C@H](N)C(=O)O; Suc = O=C(CCC(=O)[*:2])[*:1]; Thp = NC1(C(=O)O)CCOCC1; X1 = C[N+](C)(C)CCCCC*; AEEA = NCCOCCOCC(=O)O; ξK = NCCCCC(N)C(=O)O; Sar = CNCC(=O)O

How the values were obtained:
[1] = target: T1, IL-23R (Homo sapiens, UniProt Q5VWK5); test: IL23R Reporter Assay; type: cell-based; conditions: HEK293 cells containing IL-23R, IL-12Rβ1 and STAT-inducible firefly luciferase reporter; 10 ng/mL IL-23 (EC90); 5 h
T1 construct: HEK293 cells containing IL-23R, IL-12Rβ1 and a firefly luciferase reporter gene driven by a STAT-inducible promoter (Promega); host or cells: HEK293
T1 sequence (Q5VWK5 24-629): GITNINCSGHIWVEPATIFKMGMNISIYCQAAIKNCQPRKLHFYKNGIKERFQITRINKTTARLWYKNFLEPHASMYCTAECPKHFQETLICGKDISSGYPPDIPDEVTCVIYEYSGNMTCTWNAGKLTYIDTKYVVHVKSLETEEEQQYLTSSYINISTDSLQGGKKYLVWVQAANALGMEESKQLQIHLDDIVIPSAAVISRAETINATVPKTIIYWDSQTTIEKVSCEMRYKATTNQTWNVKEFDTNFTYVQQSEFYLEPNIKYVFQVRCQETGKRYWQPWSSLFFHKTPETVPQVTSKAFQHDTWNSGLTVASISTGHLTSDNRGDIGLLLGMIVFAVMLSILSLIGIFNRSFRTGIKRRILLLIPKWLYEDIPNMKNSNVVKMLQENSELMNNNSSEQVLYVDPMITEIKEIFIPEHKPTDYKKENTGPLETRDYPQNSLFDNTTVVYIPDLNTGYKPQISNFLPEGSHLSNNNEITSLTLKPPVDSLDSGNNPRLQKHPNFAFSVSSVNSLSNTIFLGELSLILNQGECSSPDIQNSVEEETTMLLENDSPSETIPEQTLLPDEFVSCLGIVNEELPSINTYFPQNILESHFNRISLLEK
How it was run: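 HEK293 cells carrying IL-23R, IL-12Rβ1 and a STAT-driven firefly luciferase reporter (4000 cells/well) received compound, then 10 ng/mL IL-23 solution (EC90), and were incubated for 5 h at 37° C. BioGlo luminescence was normalised to IL-23 alone (0%) and 30 μM control inhibitor (100%). IC50 came from a 4-parameter Hill fit.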

[2] = test system: IL-23-stimulated phosphorylated STAT3 in peripheral blood mononuclear cells (PBMCs); test: PBMC pSTAT3 Assay; type: cell-based; conditions: PBMCs from healthy donors; 30 min preincubation with peptide; IL-23 5 ng/mL for 30 min; phospho-STAT3 by MSD
Experimental: Cryopreserved peripheral blood mononuclear cells (PBMCs) from healthy donors were thawed and washed twice in ImmunoCult-XF T cell expansion medium (XF-TCEM) supplemented with CTL anti-aggregate wash. The cells were counted, resuspended at 2-6×10^5 cells per mL XF-TCEM supplemented with penicillin/streptomycin and 100 ng/mL […] (BioLegend, 579404), and cultured in tissue culture flasks coated with anti-CD3 (eBioscience, 16-0037-85 or BD Pharmingen, 555329) at 37° C. in 5% CO2. On day 4 of culture, PBMCs were collected, washed twice in RPMI-1640 supplemented with 0.1% BSA (RPMI-BSA), and incubated in RPMI-BSA in upright tissue culture flasks for ~4 hours at 37° C. in 5% CO2. Following this 'starvation,' a total of 6×10^4 cells in 30 μL RPMI-BSA was transferred into each well of a 384-well plate pre-spotted with peptide or DMSO. The cells were incubated for 30 minutes prior to the addition of […] at a final concentration of 5 ng/mL. The cells were stimulated with cytokine for 30 minutes at 37° C. in 5% CO2, transferred onto ice for 10 minutes, and lysed. Cell lysates were stored at -80° C. until phosphorylated STAT3 was measured using the phospho-STAT panel kit (Meso Scale Discovery, […]). Results are provided below. • A: IC50<0.5 nM; • B: 0.5 nM≤IC50<5 nM; • C: 5 nM≤IC50; • ND: Not determined

CC(=O)N(C)CCCC[C@@H]1NC(=O)[C@H](Cc2c[nH]c3c(C)cccc23)NC(=O)[C@H]([C@@H](C)O)NC(=O)[C@H](CC(=O)N(C)C)NC(=O)[C@@H](NC(=O)COCCOCCNC(=O)COCCOCCNC(=O)CC[C@H](NC(=O)CCCCCCCCCCCCCCCCCCC(=O)O)C(=O)O)C(C)(C)SSC(C)(C)[C@@H](C(=O)N[C@@H](Cc2ccc(OCCOCCOCC[N+](C)(C)C)cc2)C(=O)N[C@@H](Cc2ccc3ccccc3c2)C(=O)NC2(C(=O)N[C@@H](CCCCN(C)C(C)=O)C(=O)N[C@@H](CC(N)=O)C(=O)N[C@@H](Cc3cccnc3)C(=O)N(C)CC(=O)N(C)C)CCOCC2)NC1=O [compound 110, HOC20gEPEG2PEG2CO-Pen(3)-N(N(Me)2)-T-7MeW-K(NMeAc)-Pen(3)-APEG3F-2Nal-THP-K(NMeAc)-N-3Pya-Sar-CON(Me)2] ({C20 diacid-γGlu-AEEA-AEEA}-[Pen]D(NMe2)T[Trp(7-Me)][Lys(Me)](Ac)[Pen]Y(CH2CH2OCH2CH2OCH2CH2NMe3+)[2Nal][Thp][Lys(Me)](Ac)N[3Pal][Sar]-NMe2; disulfide 1-6)
pIC50 [1]: 6.30 to 7.30 | pIC50 [2]: > 9.30

CC(=O)NCCCC[C@@H]1NC(=O)[C@H](Cc2c[nH]c3c(C)cccc23)NC(=O)[C@H]([C@@H](C)O)NC(=O)[C@H](CC(N)=O)NC(=O)[C@@H](NC(=O)[C@@H](CCCNC(=N)N)NC(=O)COCCOCCNC(=O)COCCOCCNC(=O)CC[C@H](NC(=O)CCCCCCCCCCCCCCCCC(=O)O)C(=O)O)C(C)(C)SSC(C)(C)[C@@H](C(=O)N[C@@H](Cc2ccc(OCCN)cc2)C(=O)N[C@@H](Cc2ccc3ccccc3c2)C(=O)NC2(C(=O)N[C@@H](CCCCN(C)C(=O)CCOCCOCC[N+](C)(C)C)C(=O)N[C@@H](CC(N)=O)C(O)N[C@@H](Cc3cccnc3)C(=O)N(C)CC(N)=O)CCOCC2)NC1=O (stereo partly drawn) [compound 82, HOC18gEPEG2PEG2CO-r-Pen(3)-N-T-7MeW-K(Ac)-Pen(3)-AEF-2Nal-THP-K(NMecPEG3a)-N-3Pya-Sar-CONH2] ({C18 diacid-γGlu-AEEA-AEEA}-[dR][Pen]NT[Trp(7-Me)]K(Ac)[Pen][AEF][2Nal][Thp][Lys(Me)](Me3N+(CH2)2O(CH2)2O(CH2)2CO)-X11; disulfide 2-7)
pIC50 [1]: > 7.30 | pIC50 [2]: > 9.30

CC(=O)N[C@H](CCCNC(=N)N)C(=O)N[C@@H]1C(=O)N[C@@H](CC(N)=O)C(=O)N[C@@H]([C@@H](C)O)C(=O)N[C@@H](Cc2c[nH]c3c(C)cccc23)C(=O)N[C@@H](CCCCNC(=O)CCC(=O)N[C@H](CC(=O)O)C[N+](C)(C)C)C(=O)N[C@H](C(=O)N[C@@H](Cc2ccc(OCCN)cc2)C(=O)N[C@@H](Cc2ccc3ccccc3c2)C(=O)NC2(C(=O)N[C@@H](CCC(=O)O)C(=O)N[C@@H](CC(N)=O)C(=O)N[C@@H](Cc3cccnc3)C(=O)N(C)CC(=O)N[C@@H](CCCCNC(=O)COCCOCCNC(=O)COCCOCCNC(=O)CC[C@H](NC(=O)CCCCCCCCCCCCCCCCC(=O)O)C(=O)O)C(N)=O)CCOCC2)C(C)(C)SSC1(C)C [compound 52, MeCO-r-Pen(3)-N-T-7MeW-K(d)-Pen(3)-AEF-2Nal-THP-E-N-3Pya-Sar-K(PEG2PEG2gEC18OH)-CONH2] (Ac-[dR][Pen]NT[Trp(7-Me)]K([Suc-X2])[Pen][AEF][2Nal][Thp]EN[3Pal][Sar]K([AEEA-AEEA-γGlu-C18 diacid])-NH2; disulfide 2-7)
pIC50 [1]: 6.30 to 7.30 | pIC50 [2]: > 9.30

CC(=O)N[C@H](CCCNC(=N)N)C(=O)N[C@@H]1C(=O)N[C@@H](CC(N)=O)C(=O)N[C@@H]([C@@H](C)O)C(=O)N[C@@H](Cc2c[nH]c3c(C)cccc23)C(=O)NC(CCCCNC(=O)COCCOCCNC(=O)COCCOCCNC(=O)CC[C@H](NC(=O)CCCCCCCCCCCCCCCCC(=O)O)C(=O)O)C(=O)N[C@H](C(=O)N[C@@H](Cc2ccc(OCCN)cc2)C(=O)N[C@@H](Cc2ccc3ccccc3c2)C(=O)NC2(C(=O)N[C@@H](CCC(=O)O)C(=O)N[C@@H](CC(N)=O)C(=O)N[C@@H](Cc3cccnc3)C(=O)N(C)CC(N)=O)CCOCC2)C(C)(C)SSC1(C)C (stereo partly drawn) [compound 59, MeCO-r-Pen(3)-N-T-7MeW-K(PEG2PEG2gEC18OH)-Pen(3)-AEF-2Nal-THP-E-N-3Pya-Sar-CONH2] (Ac-[dR][Pen]NT[Trp(7-Me)][ξK]([AEEA-AEEA-γGlu-C18 diacid])[Pen][AEF][2Nal][Thp]EN[3Pal][Sar]-NH2; disulfide 2-7)
pIC50 [1]: 6.30 to 7.30 | pIC50 [2]: > 9.30

CC(=O)N[C@@H](CCCCNC(=O)CCCCOCCNC(=O)COCCOCCNC(=O)CC[C@H](NC(=O)CCCCCCCCCCCCCCCCC(=O)O)C(=O)O)C(=O)N[C@@H]1C(=O)N[C@@H](CC(=O)N(C)C)C(=O)N[C@@H]([C@@H](C)O)C(=O)N[C@@H](Cc2c[nH]c3c(C)cccc23)C(=O)N[C@@H](CCCCN(C)C(C)=O)C(=O)N[C@H](C(=O)N[C@@H](Cc2ccc(OCCCCC[N+](C)(C)C)cc2)C(=O)N[C@@H](Cc2ccc3ccccc3c2)C(=O)NC2(C(=O)N[C@@H](CCCCN(C)C(C)=O)C(=O)N[C@@H](CC(N)=O)C(=O)N[C@@H](Cc3cccnc3)C(=O)N(C)CC(N)=O)CCOCC2)C(C)(C)SSC1(C)C [compound 63, MeCO-K(PEG2PEG2gEC18OH)-Pen(3)-N(N(Me)2)-T-7MeW-K(NMeAc)-Pen(3)-TMAPF-2Nal-THP-K(NMeAc)-N-3Pya-Sar-CONH2] (Ac-K(X38)[Pen]D(NMe2)T[Trp(7-Me)][Lys(Me)](Ac)[Pen]Y(X1)[2Nal][Thp][Lys(Me)](Ac)N[3Pal][Sar]-NH2; disulfide 2-7)
pIC50 [1]: ≤ 6.30 | pIC50 [2]: ≤ 8.30

CC(=O)NCCCC[C@@H]1NC(=O)[C@H](Cc2c[nH]c3c(C)cccc23)NC(=O)[C@H]([C@@H](C)O)NC(=O)[C@H](CC(N)=O)NC(=O)[C@@H](NC(=O)[C@@H](CCCNC(=N)N)NC(=O)CCC(=O)N[C@H](CC(=O)O)C[N+](C)(C)C)C(C)(C)SSC(C)(C)[C@@H](C(=O)N[C@@H](Cc2ccc(OCCN)cc2)C(=O)N[C@@H](Cc2ccc3ccccc3c2)C(=O)NC2(C(=O)N[C@@H](CCC(=O)O)C(=O)N[C@@H](CC(N)=O)C(=O)N[C@@H](Cc3cccnc3)C(=O)N(C)CC(=O)N[C@@H](CCCCNC(=O)COCCOCCNC(=O)COCCOCCNC(=O)CC[C@H](NC(=O)CCCCCCCCCCCCCCCCC(=O)O)C(=O)O)C(N)=O)CCOCC2)NC1=O [compound 54, succiniccarn-r-Pen(3)-N-T-7MeW-K(Ac)-Pen(3)-AEF-2Nal-THP-E-N-3Pya-Sar-K(PEG2PEG2gEC18OH)-CONH2] ({X2-Suc}-[dR][Pen]NT[Trp(7-Me)]K(Ac)[Pen][AEF][2Nal][Thp]EN[3Pal][Sar]K([AEEA-AEEA-γGlu-C18 diacid])-NH2; disulfide 2-7)
pIC50 [1]: 6.30 to 7.30 | pIC50 [2]: > 9.30

CC(=O)NCCCC[C@@H]1NC(=O)[C@H](Cc2c[nH]c3c(C)cccc23)NC(=O)[C@H]([C@@H](C)O)NC(=O)[C@H](CC(N)=O)NC(=O)[C@@H](NC(=O)C(CCCNC(=N)N)CC(=O)COCCOCCNC(=O)COCCOCCNC(=O)CC[C@H](NC(=O)CCCCCCCCCCCCCCCCC(=O)O)C(=O)O)C(C)(C)SSC(C)(C)[C@@H](C(=O)N[C@@H](Cc2ccc(OCCN)cc2)C(=O)N[C@@H](Cc2ccc3ccccc3c2)C(=O)NC2(C(=O)N[C@@H](CCC(=O)O)C(=O)N[C@@H](CC(N)=O)C(=O)N[C@@H](Cc3cccnc3)C(=O)N(C)[C@@H](CCCCNC(=O)CCC(=O)N[C@H](CC(=O)O)C[N+](C)(C)C)C(N)=O)CCOCC2)NC1=O (some centres unmarked) [compound 43, HOC18gEPEG2PEG2CO-r-Pen(3)-N-T-7MeW-K(Ac)-Pen(3)-AEF-2Nal-THP-E-N-3Pya-NMeK(d)-CONH2]
pIC50 [1]: > 7.30 | pIC50 [2]: > 9.30
